Results taken from the supplement of paper PMC11061612.

Tests used:
[1] = tested on: BT-549 (Breast Carcinoma); test: Bliss excess, mean over the matrix (fraction); higher = more synergy
In short: (§1)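 After 24 hours at 37°C and 5% CO2 in 1536-well plates, cells in DMEM/F12 or RPMI plus 10% FBS received two-drug dose matrices for 72 hours. Viability came from CellTiter-Glo 2.0 luminescence and was scaled as inhibition, anchored at 0 by vehicle wells and at 1 by blank wells. Combination Emax is taken as the second-highest inhibition in the matrix, and Bliss excess as the observed combination effect less EA + EB − EA·EB, with EA and EB the single-agent effects.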

[2] = tested on: Ca9-22 (Head and Neck Carcinoma); test: as above
In short: as §1

[3] = tested on: Caov-4 (Ovarian Carcinoma); test: as above
In short: as §1

[4] = tested on: Hs-766T (Pancreatic Carcinoma); test: as above
In short: as §1

[5] = tested on: SW13 (Other Solid Carcinomas); test: as above
In short: as §1

ACHN (Kidney Carcinoma) = test: combination Emax (second highest fraction inhibited in the dose matrix, 72 h); higher = more inhibition; extreme values may be limits of the assay
In short: as §1

[6] = tested on: AMO-1 (Plasma Cell Myeloma); test: as above
In short: as §1

[7] = tested on: BT-549 (Breast Carcinoma); test: as above
In short: as §1

D-263MG (Glioblastoma) = test: as above
In short: as §1

[8] = tested on: EFM-19 (Breast Carcinoma); test: as above
In short: as §1

EW-24 (Ewing's Sarcoma) = test: as above
In short: as §1

[9] = tested on: Hs-766T (Pancreatic Carcinoma); test: as above
In short: as §1

[10] = tested on: KARPAS-299 (T-Cell Non-Hodgkin's Lymphoma); test: as above
In short: as §1

[11] = tested on: LU-65 (Non-Small Cell Lung Carcinoma); test: as above
In short: as §1

[12] = tested on: NCI-H727 (Other Solid Carcinomas); test: as above
In short: as §1

[13] = tested on: RF-48 (B-Cell Non-Hodgkin's Lymphoma); test: as above
In short: as §1

[14] = tested on: SW13 (Other Solid Carcinomas); test: as above
In short: as §1

TGW (Neuroblastoma) = test: as above
In short: as §1

UACC-62 (Melanoma) = test: as above
In short: as §1

YH-13 (Glioblastoma) = test: as above
In short: as §1
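Throughout, for Bliss excess, mean over the matrix: after 72 h of two-drug dosing.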

| SMILES | Bliss excess [1] | Bliss excess [2] | Bliss excess [3] | Bliss excess [4] | Bliss excess [5] | combination Emax (ACHN (Kidney Carcinoma)) | combination Emax [6] | combination Emax [7] | combination Emax (D-263MG (Glioblastoma)) | combination Emax [8] | combination Emax (EW-24 (Ewing's Sarcoma)) | combination Emax [9] | combination Emax [10] | combination Emax [11] | combination Emax [12] | combination Emax [13] | combination Emax [14] | combination Emax (TGW (Neuroblastoma)) | combination Emax (UACC-62 (Melanoma)) | combination Emax (YH-13 (Glioblastoma)) |
| --- | --- | --- | --- | --- | --- | --- | --- | --- | --- | --- | --- | --- | --- | --- | --- | --- | --- | --- | --- | --- |
| CN(CCO)CC[C@H](CSc1ccccc1)Nc1ccc(S(=O)(=O)NC(=O)c2ccc(N3CCC([C@@H](O)c4ccccc4-c4ccc(Cl)cc4)CC3)cc2)cc1S(=O)(=O)C(F)(F)F [AZD4320] + C[C@@H]1COCCN1C2=NC(=NC(=C2)C3(CC3)[S@](=N)(=O)C)C4=C5C=CNC5=NC=C4 [AZD6738] (first compound max 1 µM, 7x7, partner max 10 µM) | -0.0239 | 0.0001 | -0.027 | -0.108 | -0.0208 | 0.986 | 0.826 | 0.552 | 0.758 | 0.716 | 0.954 | 0.6 | 0.955 | 0.781 | 0.695 | 0.917 | 0.405 | 0.949 | 0.7 | 0.568 |
| CN(CCO)CC[C@H](CSc1ccccc1)Nc1ccc(S(=O)(=O)NC(=O)c2ccc(N3CCC([C@@H](O)c4ccccc4-c4ccc(Cl)cc4)CC3)cc2)cc1S(=O)(=O)C(F)(F)F [AZD4320] + C[C@@H](Nc1cc(F)cc(F)c1)c1cc(C(=O)N(C)C)cc2c(=O)cc(N3CCOCC3)oc12 [AZD8186] (first compound max 1 µM, 7x7, partner max 3 µM) | -0.0156 | -0.0194 | 0.0112 | 0.0113 | 0.0064 | 0.252 | 0.244 | 0.456 | 0.38 | 0.82 | 0.921 | 0.469 | 0.247 | 0.483 | 0.378 | 0.959 | 0.592 | 0.968 | 0.67 | 0.694 |
| C[C@@H](c1ccc2nccn2c1)n1nnc2ncc(-c3cnn(C)c3)nc21 [Savolitinib] + CC1(C)CCC(CN2CCN(c3ccc(C(=O)NS(=O)(=O)c4ccc(NCC5CCOCC5)c([N+](=O)[O-])c4)c(Oc4cnc5[nH]ccc5c4)c3)CC2)=C(c2ccc(Cl)cc2)C1 [Venetoclax] (first compound max 1 µM, 7x7, partner max 1 µM) | -0.0439 | -0.0231 | -0.0839 | -0.0681 | -0.0363 | 0.127 | 0.326 | 0.113 | 0.158 | 0.182 | 0.172 | 0.252 | 0.169 | 0.129 | 0.157 | 0.384 | 0.139 | 0.313 | 0.24 | 0.237 |
| COc1cc2c(cc1OCCCCCOc1cc3c(cc1OC)C(=O)N1C=C(C)C[C@H]1C=N3)N=C[C@@H]1CC(C)=CN1C2=O [SG3199] + O=C(c1cc(Cc2n[nH]c(=O)c3ccccc23)ccc1F)N1CCN(C(=O)C2CC2)CC1 [Olaparib] (first compound max 0.001 µM, 7x7, partner max 10 µM) | -0.041 | -0.0113 | -0.0267 | -0.0433 | -0.0184 | 0.0891 | 0.0932 | 0.095 | 0.0915 | 0.171 | 0.196 | 0.0914 | 0.0832 | 0.24 | 0.24 | 0.266 | 0.0899 | 0.166 | 0.0735 | 0.16 |
| N#Cc1cnc(Nc2cc(NC[C@H]3CNCCO3)c(C(F)(F)F)cn2)cn1 [SRA737] + Nc1ccn([C@@H]2O[C@H](CO)[C@@H](O)C2(F)F)c(=O)n1 [Gemcitabine] (first compound max 10 µM, 7x7, partner max 0.3 µM) | -0.0532 | 0.122 | 0.0158 | 0.003 | 0.0367 | 0.821 | 0.974 | 0.715 | 0.734 | 0.684 | 0.691 | 0.477 | 0.998 | 0.862 | 0.436 | 0.746 | 0.944 | 0.861 | 0.788 | 0.813 |
| Cc1nc(Nc2ncc(C(=O)Nc3c(C)cccc3Cl)s2)cc(N2CCN(CCO)CC2)n1 [Dasatinib] + CC(=O)Nc1cccc(-n2c(=O)n(C3CC3)c(=O)c3c(Nc4ccc(I)cc4F)n(C)c(=O)c(C)c32)c1 [Trametinib] (first compound max 2 µM, 7x7, partner max 1 µM) | -0.0945 | 0.0313 | -0.125 | 0.0971 | -0.0548 | 0.749 | 0.405 | 0.436 | 0.761 | 0.199 | 0.171 | 0.777 | 0.427 | 0.564 | 0.701 | 0.414 | 0.716 | 0.273 | 0.888 | 0.784 |
